Results: ChEMBL document CHEMBL1201862, “PubChem BioAssay data set” (2004)
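Exposure lasted 48 hours, with cells grown in 96-well plates and compounds tested at five concentrations. GI50 is the concentration that inhibits growth by half.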 Active and inactive are the calls of the source. Cut-off read from the data, not from the text of the source: active = GI50 up to about 1.1 µM and inactive = higher.

Key:
Assay in all cases: NCI anticancer screen, dose series, 48 h
[1] = tested on: HOP-92
[2] = tested on: MOLT-4
[3] = tested on: UO-31
[4] = tested on: HCT-15
[5] = tested on: OVCAR-5
[6] = tested on: OVCAR-3
[7] = tested on: OVCAR-8
[8] = tested on: SK-MEL-2
[9] = tested on: SF-295
[10] = tested on: RXF 393
[11] = tested on: SNB-19
[12] = tested on: CAKI-1
[13] = tested on: NCI-H522
[14] = tested on: NCI-H460
[15] = tested on: KM12
[16] = tested on: NCI-H226
[17] = tested on: UACC-257
[18] = tested on: COLO 205

SMILES	GI50 [1]	GI50 [2]	GI50 [3]	GI50 [4] [µM]	GI50 [5]	GI50 [6]	GI50 [7]	GI50 [8]	GI50 [9]	GI50 [10]	GI50 [11]	GI50 [12]	GI50 [13]	GI50 [14]	GI50 [15]	GI50 [16]	GI50 [17]	GI50 [18]
CCOC(=O)C[C@@]12CCCN[C@]1(C)CCc1ccccc12	97.1 µM (inactive)	> 100 µM (inactive)	> 100 µM (inactive)	> 100	> 100 µM (inactive)	> 100 µM (inactive)	> 100 µM (inactive)	> 100 µM (inactive)	> 100 µM (inactive)	> 100 µM (inactive)	> 100 µM (inactive)	> 100 µM (inactive)	> 100 µM (inactive)	> 100 µM (inactive)	> 100 µM (inactive)	–	–	–
CC1=C(C#N)C(=O)CC(c2ccc(Cl)cc2)N(C)N1 (stereo not drawn)	> 100 µM (inactive)	> 100 µM (inactive)	–	> 100	> 100 µM (inactive)	–	–	> 100 µM (inactive)	> 100 µM (inactive)	> 100 µM (inactive)	> 100 µM (inactive)	> 100 µM (inactive)	> 100 µM (inactive)	> 100 µM (inactive)	> 100 µM (inactive)	> 100 µM (inactive)	> 100 µM (inactive)	–
C#CCN(N=O)C(=O)ON1C(=O)CCC1=O	> 100 µM (inactive)	> 100 µM (inactive)	> 100 µM (inactive)	> 100	61.8 µM (inactive)	> 100 µM (inactive)	> 100 µM (inactive)	> 100 µM (inactive)	> 100 µM (inactive)	> 100 µM (inactive)	> 100 µM (inactive)	–	> 100 µM (inactive)	> 100 µM (inactive)	> 100 µM (inactive)	–	> 100 µM (inactive)	> 100 µM (inactive)
Cc1nc2cc(Nc3ccccc3C(=O)O)ccc2s1	> 100 µM (inactive)	> 100 µM (inactive)	34 µM (inactive)	63.1	> 100 µM (inactive)	> 100 µM (inactive)	> 100 µM (inactive)	> 100 µM (inactive)	> 100 µM (inactive)	> 100 µM (inactive)	> 100 µM (inactive)	> 100 µM (inactive)	75 µM (inactive)	> 100 µM (inactive)	> 100 µM (inactive)	–	–	> 100 µM (inactive)
O=C1Nc2ccc(Cl)c(I)c2C1=O	–	22.9 µM (inactive)	17.7 µM (inactive)	20.9	19.7 µM (inactive)	21.1 µM (inactive)	18.7 µM (inactive)	18.7 µM (inactive)	17.8 µM (inactive)	16.3 µM (inactive)	24.5 µM (inactive)	21.6 µM (inactive)	17.2 µM (inactive)	21.2 µM (inactive)	26.5 µM (inactive)	0.608 µM (active)	17.9 µM (inactive)	18.7 µM (inactive)
CCN(CC)CCSc1c2ccccc2nc2c(OC)ccc(OC)c12	2.36 µM (inactive)	1.65 µM (inactive)	12.8 µM (inactive)	3.15	29.9 µM (inactive)	–	2.43 µM (inactive)	–	33.4 µM (inactive)	1.94 µM (inactive)	43.6 µM (inactive)	3.1 µM (inactive)	3.26 µM (inactive)	10.8 µM (inactive)	5.79 µM (inactive)	29.5 µM (inactive)	3.78 µM (inactive)	2.72 µM (inactive)
O=S1(=O)c2cc(S(=O)(=O)n3ccnc3)ccc2NC2=NCCCN21	> 100 µM (inactive)	40.7 µM (inactive)	31 µM (inactive)	–	48.1 µM (inactive)	20.3 µM (inactive)	27.2 µM (inactive)	–	29.4 µM (inactive)	–	78.5 µM (inactive)	38.8 µM (inactive)	14.2 µM (inactive)	–	24.8 µM (inactive)	19.8 µM (inactive)	> 100 µM (inactive)	18.6 µM (inactive)
O=C(O)C1(C(=O)O)CC1	–	> 100 µM (inactive)	> 100 µM (inactive)	> 100	–	> 100 µM (inactive)	> 100 µM (inactive)	> 100 µM (inactive)	> 100 µM (inactive)	40 µM (inactive)	> 100 µM (inactive)	> 100 µM (inactive)	> 100 µM (inactive)	> 100 µM (inactive)	> 100 µM (inactive)	–	> 100 µM (inactive)	> 100 µM (inactive)
CS(=O)(=O)c1ccc(-c2cc(-c3ccc(S(C)(=O)=O)cc3)[n+](-c3cc(-c4ccc(S(C)(=O)=O)cc4)c([O-])c(-c4ccc(S(C)(=O)=O)cc4)c3)c(-c3ccc(S(C)(=O)=O)cc3)c2)cc1	–	> 100 µM (inactive)	> 100 µM (inactive)	> 100	> 100 µM (inactive)	> 100 µM (inactive)	> 100 µM (inactive)	> 100 µM (inactive)	91.8 µM (inactive)	> 100 µM (inactive)	> 100 µM (inactive)	> 100 µM (inactive)	> 100 µM (inactive)	> 100 µM (inactive)	> 100 µM (inactive)	> 100 µM (inactive)	56.5 µM (inactive)	> 100 µM (inactive)
Cc1ccccc1C(C#N)C(=O)C(=O)Nc1nc([N+](=O)[O-])cs1 (stereo not drawn)	–	–	> 100 µM (inactive)	> 100	> 100 µM (inactive)	> 100 µM (inactive)	> 100 µM (inactive)	–	–	> 100 µM (inactive)	> 100 µM (inactive)	> 100 µM (inactive)	> 100 µM (inactive)	> 100 µM (inactive)	> 100 µM (inactive)	> 100 µM (inactive)	> 100 µM (inactive)	–
Oc1ccc(O)c(-n2cccn2)c1-n1cccn1	> 100 µM (inactive)	> 10 µM (inactive)	> 100 µM (inactive)	> 100	> 100 µM (inactive)	> 100 µM (inactive)	> 100 µM (inactive)	> 100 µM (inactive)	37.2 µM (inactive)	> 100 µM (inactive)	> 100 µM (inactive)	> 100 µM (inactive)	25.7 µM (inactive)	> 100 µM (inactive)	> 100 µM (inactive)	–	–	30.5 µM (inactive)
O=C(O)CNS(=O)(=O)c1ccc(NC(=O)c2ccccc2[N+](=O)[O-])cc1	> 100 µM (inactive)	> 100 µM (inactive)	> 100 µM (inactive)	> 100	> 100 µM (inactive)	–	> 100 µM (inactive)	> 100 µM (inactive)	–	> 100 µM (inactive)	> 100 µM (inactive)	> 100 µM (inactive)	> 100 µM (inactive)	> 100 µM (inactive)	–	–	> 100 µM (inactive)	> 100 µM (inactive)
CC1=CCCC(OC(N)=O)C1 (stereo not drawn)	46.2 µM (inactive)	> 100 µM (inactive)	> 100 µM (inactive)	> 100	> 100 µM (inactive)	> 100 µM (inactive)	> 100 µM (inactive)	> 100 µM (inactive)	> 100 µM (inactive)	> 100 µM (inactive)	> 100 µM (inactive)	> 100 µM (inactive)	–	> 100 µM (inactive)	> 100 µM (inactive)	–	> 100 µM (inactive)	> 100 µM (inactive)
CCOC(=O)C1C2CCC(C2)C1(CCl)C(=O)OCC (stereo not drawn)	36.6 µM (inactive)	> 100 µM (inactive)	> 100 µM (inactive)	> 100	> 100 µM (inactive)	> 100 µM (inactive)	> 100 µM (inactive)	–	> 100 µM (inactive)	–	> 100 µM (inactive)	> 100 µM (inactive)	–	> 100 µM (inactive)	–	> 100 µM (inactive)	> 100 µM (inactive)	> 100 µM (inactive)
FC(F)(F)c1ccccc1/C=N/C12CC3CC(CC(C3)C1)C2	–	> 100 µM (inactive)	0.908 µM (active)	> 100	> 100 µM (inactive)	> 100 µM (inactive)	> 100 µM (inactive)	> 100 µM (inactive)	> 100 µM (inactive)	> 100 µM (inactive)	0.986 µM (active)	> 100 µM (inactive)	–	> 100 µM (inactive)	> 100 µM (inactive)	> 100 µM (inactive)	> 100 µM (inactive)	> 100 µM (inactive)
C=CC(C)(C)[C@@]12CC3C(=O)N[C@@H](Cc4ccccc4)C(=O)N3[C@@H]1N(C(C)=O)c1ccccc12 (stereo partly drawn)	25.2 µM (inactive)	27.4 µM (inactive)	54.8 µM (inactive)	58.1	> 100 µM (inactive)	48.6 µM (inactive)	73.5 µM (inactive)	> 100 µM (inactive)	97.3 µM (inactive)	–	> 100 µM (inactive)	–	–	48.8 µM (inactive)	77.8 µM (inactive)	> 100 µM (inactive)	68.4 µM (inactive)	36.5 µM (inactive)
COC(=O)CCC12CCC(=O)C1[C@@H](C(=O)OC)C[C@H]2C(=O)OC (stereo partly drawn)	–	> 100 µM (inactive)	> 100 µM (inactive)	> 100	> 100 µM (inactive)	> 100 µM (inactive)	> 100 µM (inactive)	> 100 µM (inactive)	> 100 µM (inactive)	> 100 µM (inactive)	> 100 µM (inactive)	> 100 µM (inactive)	> 100 µM (inactive)	> 100 µM (inactive)	> 100 µM (inactive)	> 100 µM (inactive)	> 100 µM (inactive)	> 100 µM (inactive)
N#CC(C#N)=C(C(C#N)C#N)C(C#N)C#N	> 100 µM (inactive)	> 100 µM (inactive)	> 100 µM (inactive)	> 100	> 100 µM (inactive)	> 100 µM (inactive)	> 100 µM (inactive)	–	> 100 µM (inactive)	> 100 µM (inactive)	> 100 µM (inactive)	> 100 µM (inactive)	> 100 µM (inactive)	> 100 µM (inactive)	> 100 µM (inactive)	> 100 µM (inactive)	> 100 µM (inactive)	> 100 µM (inactive)
